Data published in patent US11572398B2, “GLP-1 derivatives and uses thereof” (Novo Nordisk A/S, priority 2014, dated 2023).
Where two headings read alike, the source gives them in different places.

How the values were obtained:
in vivo = conditions: male, Göttingen, minipig, iv
Description: The purpose of this study is to determine the protraction in vivo of the GLP-1 derivatives after i.v. administration to minipigs, i.e. the prolongation of their time in the body and thereby their time of action. This is done in a pharmacokinetic (PK) study, where the terminal half-life of the derivative in question is determined. By terminal half-life is meant the time it takes to halve a certain plasma concentration in the terminal elimination phase.
Male Göttingen minipigs were obtained from Ellegaard Göttingen Minipigs (Dalmose, Denmark) approximately 7-14 months of age and weighing approximately 16-35 kg were used in the studies. The minipigs were housed either individually (pigs with permanent catheters) or in a group and fed restrictedly once or twice daily with SDS minipig diet (Special Diets Services, Essex, UK).
After at least 2 weeks of acclimatisation two permanent central venous catheters were implanted in vena cava caudalis or cranialis in each animal. The animals were allowed 1 week recovery after the surgery, and were then used for repeated pharmacokinetic studies with a suitable wash-out period between successive GLP-1 derivative dosings.
Blood samples (for example 0.8 ml) were collected in EDTA buffer (8 mM) and then centrifuged at 4° C. and 1942G for 10 minutes.
Plasma was pipetted into Micronic tubes on dry ice, and kept at −20° C. until analysed for plasma concentration of the respective GLP-1 compound using LOCI. Individual plasma concentration-time profiles were analyzed by a non-compartmental pharmacokinetic method in Phoenix v. 6.2 (Pharsight Inc., Mountain View, Calif., USA), or other relevant software for PK analysis, and the resulting terminal half-lives (harmonic mean) determined.

human GLP-1 receptor [1] = biological target: T1, human GLP-1 receptor (Homo sapiens, UniProt P43220); assay: GLP-1 receptor binding: competitive binding assay (125I-GLP-1, SPA) on isolated membranes at low and high HSA
T1 construct: expressed in transfected cells; host or cells: BHK cells (parent line BHKTS13), clone FCW467-12A; membrane preparation
T1 sequence (P43220 24-463): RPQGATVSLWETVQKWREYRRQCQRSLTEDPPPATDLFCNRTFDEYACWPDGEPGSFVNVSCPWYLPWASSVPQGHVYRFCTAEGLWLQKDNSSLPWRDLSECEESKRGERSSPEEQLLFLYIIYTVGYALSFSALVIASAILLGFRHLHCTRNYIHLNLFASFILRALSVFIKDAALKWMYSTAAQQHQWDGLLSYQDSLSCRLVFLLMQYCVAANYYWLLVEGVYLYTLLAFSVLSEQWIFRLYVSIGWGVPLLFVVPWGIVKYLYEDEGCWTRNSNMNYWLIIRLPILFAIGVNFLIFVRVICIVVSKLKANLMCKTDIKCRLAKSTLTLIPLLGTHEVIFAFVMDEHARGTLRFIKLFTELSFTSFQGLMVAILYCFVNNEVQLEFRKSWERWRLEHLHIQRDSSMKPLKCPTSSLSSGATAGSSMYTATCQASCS

human GLP-1 receptor [2] = biological target: T1, human GLP-1 receptor; assay: In vitro potency: CRE luciferase reporter gene assay in BHK cells expressing the human GLP-1 receptor; type: cell-based; conditions: whole cell reporter gene assay, BHK cells, human GLP-1 receptor; average of at least two replicates; read-out: EC50
Summary of the method: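 Whole-cell assay in stably transfected BHK cells carrying CRE-driven firefly luciferase, 5×10^3 cells/well, in assay buffer with 2% ovalbumin and 0.2% Pluronic F-68. Compound working solutions were 0.2 μM.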

[3] = high HSA (2.0% final assay concentration), read-out: High HSA IC50
[4] = low HSA (max. 0.001% final assay concentration), read-out: Low HSA IC50

Structure (SMILES)	half-life (in vivo) [h]	IC50 (human GLP-1 receptor [1]; [3]) [nM]	IC50 (human GLP-1 receptor [1]; [4]) [nM]	EC50 (human GLP-1 receptor [2]) [nM]
CC[C@H](C)[C@H](NC(=O)[C@H](Cc1ccccc1)NC(=O)[C@H](CCC(=O)O)NC(=O)[C@H](CCCNC(=N)N)NC(=O)[C@H](C)NC(=O)[C@H](C)NC(=O)[C@H](CCC(N)=O)NC(=O)[C@H](CCC(=O)O)NC(=O)[C@H](CCC(=O)O)NC(=O)[C@H](CC(C)C)NC(=O)[C@H](Cc1ccc(O)cc1)NC(=O)[C@H](CO)NC(=O)[C@H](CO)NC(=O)[C@@H](NC(=O)[C@H](CC(=O)O)NC(=O)[C@H](CO)NC(=O)[C@@H](NC(=O)[C@H](Cc1ccccc1)NC(=O)[C@@H](NC(=O)CNC(=O)[C@H](CCC(=O)O)NC(=O)C(C)(C)NC(=O)[C@@H](N)Cc1c[nH]cn1)[C@@H](C)O)[C@@H](C)O)C(C)C)C(=O)N[C@@H](C)C(=O)N[C@@H](Cc1c[nH]c2ccccc12)C(=O)N[C@@H](CC(C)C)C(=O)N[C@H](C(=O)N[C@@H](CCCNC(=N)N)C(=O)NCC(=O)N[C@@H](CCCNC(=N)N)C(=O)N[C@@H](CCCCNC(=O)CN(CCCNC(=O)CCOCCOCCOCCOCCNC(=O)CCOCCOCCOCCOCCNC(=O)CCOCCOCCOCCOCCNC(=O)[C@@H](N)CCCCNC(=O)[C@@H](N)CCCCNC(=O)CCCCCCCCCCCCCCCCCCC(=O)O)CCCNC(=O)CCOCCOCCOCCOCCNC(=O)CCOCCOCCOCCOCCNC(=O)CCOCCOCCOCCOCCNC(=O)[C@@H](N)CCCCNC(=O)[C@@H](N)CCCCNC(=O)CCCCCCCCCCCCCCCCCCC(=O)O)C(=O)O)C(C)C [Example 5, N{Epsilon-37}-[2-[bis[3-[3-[2-[2-[2-[2-[3-[2-[2-[2-[2-[3-[2-[2-[2-[2-[[(2S)-2-amino-6-[[(2S)-2-amino-6-(19-carboxynonadecanoylamino)hexanoyl]amino]hexanoyl]amino]ethoxy]ethoxy]ethoxy]ethoxy]propanoylamino]ethoxy]ethoxy]ethoxy]ethoxy]propanoylamino]ethoxy]ethoxy]ethoxy]ethoxy]propanoylamino]propyl]amino]acetyl]-[Aib8,Glu22,Arg26,Arg34,Lys37]-GLP-1-(7-37)-peptide]	122			
CC[C@H](C)[C@H](NC(=O)[C@H](Cc1ccccc1)NC(=O)[C@H](CCC(=O)O)NC(=O)[C@H](CCCNC(=N)N)NC(=O)[C@H](C)NC(=O)[C@H](C)NC(=O)[C@H](CCC(N)=O)NC(=O)[C@H](CCC(=O)O)NC(=O)[C@H](CCC(=O)O)NC(=O)[C@H](CC(C)C)NC(=O)[C@H](Cc1ccc(O)cc1)NC(=O)[C@H](CO)NC(=O)[C@H](CO)NC(=O)[C@@H](NC(=O)[C@H](CC(=O)O)NC(=O)[C@H](CO)NC(=O)[C@@H](NC(=O)[C@H](Cc1ccccc1)NC(=O)[C@@H](NC(=O)CNC(=O)[C@H](CCC(=O)O)NC(=O)C(C)(C)NC(=O)[C@@H](N)Cc1c[nH]cn1)[C@@H](C)O)[C@@H](C)O)C(C)C)C(=O)N[C@@H](C)C(=O)N[C@@H](Cc1c[nH]c2ccccc12)C(=O)N[C@@H](CC(C)C)C(=O)N[C@H](C(=O)N[C@@H](CCCNC(=N)N)C(=O)NCC(=O)N[C@@H](CCCNC(=N)N)C(=O)N[C@@H](CCCCNC(=O)CN(CCCNC(=O)CCOCCOCCOCCOCCOCCOCCOCCOCCOCCOCCOCCOCCOCCOCCOCCOCCOCCOCCOCCOCCOCCOCCOCCOCCNC(=O)[C@@H](N)CCCCNC(=O)[C@@H](N)CCCCNC(=O)CCCCCCCCCCCCCCCCCCC(=O)O)CCCNC(=O)CCOCCOCCOCCOCCOCCOCCOCCOCCOCCOCCOCCOCCOCCOCCOCCOCCOCCOCCOCCOCCOCCOCCOCCOCCNC(=O)[C@@H](N)CCCCNC(=O)[C@@H](N)CCCCNC(=O)CCCCCCCCCCCCCCCCCCC(=O)O)C(=O)O)C(C)C [Example 6]	143	9	0.05	0.0072
CC[C@H](C)[C@H](NC(=O)[C@H](Cc1ccccc1)NC(=O)[C@H](CCC(=O)O)NC(=O)[C@H](CCCNC(=N)N)NC(=O)[C@H](C)NC(=O)[C@H](C)NC(=O)[C@H](CCC(N)=O)NC(=O)[C@H](CCC(=O)O)NC(=O)[C@H](CCC(=O)O)NC(=O)[C@H](CC(C)C)NC(=O)[C@H](Cc1ccc(O)cc1)NC(=O)[C@H](CO)NC(=O)[C@H](CO)NC(=O)[C@@H](NC(=O)[C@H](CC(=O)O)NC(=O)[C@H](CO)NC(=O)[C@@H](NC(=O)[C@H](Cc1ccccc1)NC(=O)[C@@H](NC(=O)CNC(=O)[C@H](CCC(=O)O)NC(=O)C(C)(C)NC(=O)[C@@H](N)Cc1c[nH]cn1)[C@@H](C)O)[C@@H](C)O)C(C)C)C(=O)N[C@@H](C)C(=O)N[C@@H](Cc1c[nH]c2ccccc12)C(=O)N[C@@H](CC(C)C)C(=O)N[C@H](C(=O)N[C@@H](CCCNC(=N)N)C(=O)NCC(=O)N[C@@H](CCCNC(=N)N)C(=O)N[C@@H](CCCCNC(=O)COCCOCCNC(=O)COCCOCCNC(=O)COCCOCCNC(=O)COCCOCCNC(=O)COCCOCCNC(=O)COCCOCCNC(=O)CN(CCCNC(=O)CC[C@H](NC(=O)CCCCCCCCCCCCCCCCCCC(=O)O)C(=O)O)CCCNC(=O)CC[C@H](NC(=O)CCCCCCCCCCCCCCCCCCC(=O)O)C(=O)O)C(=O)O)C(C)C [Example 26, N{Epsilon-37}-[2-[2-[2-[[2-[2-[2-[[2-[2-[2-[[2-[2-[2-[[2-[2-[2-[[2-[2-[2-[[2-[bis[3-[[(4S)-4-carboxy-4-(19-carboxynonadecanoylamino)butanoyl]amino]propyl]amino]acetyl]amino]ethoxy]ethoxy]acetyl]amino]ethoxy]ethoxy]acetyl]amino]ethoxy]ethoxy]acetyl]amino]ethoxy]ethoxy]acetyl]amino]ethoxy]ethoxy]acetyl]amino]ethoxy]ethoxy]acetyl]-[Aib8,Glu22,Arg26,Arg34,Lys37]-GLP-1-(7-37)-peptide]	131	29	0.36	

Other lines, results leading:

half-life (in vivo) [h]	IC50 (human GLP-1 receptor [1]; [3]) [nM]	IC50 (human GLP-1 receptor [1]; [4]) [nM]	EC50 (human GLP-1 receptor [2]) [nM]	Structure (SMILES)
113	11	0.19		CC[C@H](C)[C@H](NC(=O)[C@H](Cc1ccccc1)NC(=O)[C@H](CCC(=O)O)NC(=O)[C@H](CCCNC(=N)N)NC(=O)[C@H](C)NC(=O)[C@H](C)NC(=O)[C@H](CCC(N)=O)NC(=O)[C@H](CCC(=O)O)NC(=O)[C@H](CCC(=O)O)NC(=O)[C@H](CC(C)C)NC(=O)[C@H](Cc1ccc(O)cc1)NC(=O)[C@H](CO)NC(=O)[C@H](CO)NC(=O)[C@@H](NC(=O)[C@H](CC(=O)O)NC(=O)[C@H](CO)NC(=O)[C@@H](NC(=O)[C@H](Cc1ccccc1)NC(=O)[C@@H](NC(=O)CNC(=O)[C@H](CCC(=O)O)NC(=O)C(C)(C)NC(=O)[C@@H](N)Cc1c[nH]cn1)[C@@H](C)O)[C@@H](C)O)C(C)C)C(=O)N[C@@H](C)C(=O)N[C@@H](Cc1c[nH]c2ccccc12)C(=O)N[C@@H](CC(C)C)C(=O)N[C@H](C(=O)N[C@@H](CCCNC(=N)N)C(=O)NCC(=O)N[C@@H](CCCNC(=N)N)C(=O)N[C@@H](CCCCNC(=O)CN(CCCNC(=O)COCCOCCNC(=O)COCCOCCNC(=O)COCCOCCNC(=O)COCCOCCNC(=O)[C@@H](N)CCCCNC(=O)[C@@H](N)CCCCNC(=O)CCCCCCCCCCCCCCCCCCC(=O)O)CCCNC(=O)COCCOCCNC(=O)COCCOCCNC(=O)COCCOCCNC(=O)COCCOCCNC(=O)[C@@H](N)CCCCNC(=O)[C@@H](N)CCCCNC(=O)CCCCCCCCCCCCCCCCCCC(=O)O)C(=O)O)C(C)C [Example 2, N{Epsilon-37}-[2-[bis[3-[[2-[2-[2-[[2-[2-[2-[[2-[2-[2-[[2-[2-[2-[[(2S)-2-amino-6-[[(2S)-2-amino-6-(19-carboxynonadecanoylamino)hexanoyl]amino]hexanoyl]amino]ethoxy]ethoxy]acetyl]amino]ethoxy]ethoxy]acetyl]amino]ethoxy]ethoxy]acetyl]amino]ethoxy]ethoxy]acetyl]amino]propyl]amino]acetyl]-[Aib8,Glu22,Arg26,Arg34,Lys37]-GLP-1-(7-37)-peptide]
243		0.13		CC[C@H](C)[C@H](NC(=O)[C@H](Cc1ccccc1)NC(=O)[C@H](CCC(=O)O)NC(=O)[C@H](CCCNC(=N)N)NC(=O)[C@H](C)NC(=O)[C@H](C)NC(=O)[C@H](CCC(N)=O)NC(=O)[C@H](CCC(=O)O)NC(=O)[C@H](CCC(=O)O)NC(=O)[C@H](CC(C)C)NC(=O)[C@H](Cc1ccc(O)cc1)NC(=O)[C@H](CO)NC(=O)[C@H](CO)NC(=O)[C@@H](NC(=O)[C@H](CC(=O)O)NC(=O)[C@H](CO)NC(=O)[C@@H](NC(=O)[C@H](Cc1ccccc1)NC(=O)[C@@H](NC(=O)CNC(=O)[C@H](CCC(=O)O)NC(=O)C(C)(C)NC(=O)CCc1cnc[nH]1)[C@@H](C)O)[C@@H](C)O)C(C)C)C(=O)N[C@@H](C)C(=O)N[C@@H](Cc1c[nH]c2ccccc12)C(=O)N[C@@H](CC(C)C)C(=O)N[C@H](C(=O)N[C@@H](CCCNC(=N)N)C(=O)NCC(=O)N[C@@H](CCCNC(=N)N)C(=O)N[C@@H](CCCCNC(=O)CN(CCCNC(=O)COCCOCCNC(=O)COCCOCCNC(=O)COCCOCCNC(=O)COCCOCCNC(=O)[C@@H](N)CCCCNC(=O)[C@@H](N)CCCCNC(=O)CCCCCCCCCCCCCCCCCCC(=O)O)CCCNC(=O)COCCOCCNC(=O)COCCOCCNC(=O)COCCOCCNC(=O)COCCOCCNC(=O)[C@@H](N)CCCCNC(=O)[C@@H](N)CCCCNC(=O)CCCCCCCCCCCCCCCCCCC(=O)O)C(=O)O)C(C)C [Example 4]
